Like-named read-outs stand apart in the source and are kept apart here.
How the values were obtained:
HDAC7 = target: T1, HDAC7 (Homo sapiens, UniProt Q8WUI4); test: HDAC biochemical activity measurement (fluorescent substrate deacetylation);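 further: fluorogenic deacetylation assay using acetyl-lysine substrate at 20 µM, enzyme and compound incubated 30 min at 37 °C, then developer added, fluorescence read at 360/460 nm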; conditions: HDAC7; 37° C. 30 minutes
T1 sequence (Q8WUI4 1-952): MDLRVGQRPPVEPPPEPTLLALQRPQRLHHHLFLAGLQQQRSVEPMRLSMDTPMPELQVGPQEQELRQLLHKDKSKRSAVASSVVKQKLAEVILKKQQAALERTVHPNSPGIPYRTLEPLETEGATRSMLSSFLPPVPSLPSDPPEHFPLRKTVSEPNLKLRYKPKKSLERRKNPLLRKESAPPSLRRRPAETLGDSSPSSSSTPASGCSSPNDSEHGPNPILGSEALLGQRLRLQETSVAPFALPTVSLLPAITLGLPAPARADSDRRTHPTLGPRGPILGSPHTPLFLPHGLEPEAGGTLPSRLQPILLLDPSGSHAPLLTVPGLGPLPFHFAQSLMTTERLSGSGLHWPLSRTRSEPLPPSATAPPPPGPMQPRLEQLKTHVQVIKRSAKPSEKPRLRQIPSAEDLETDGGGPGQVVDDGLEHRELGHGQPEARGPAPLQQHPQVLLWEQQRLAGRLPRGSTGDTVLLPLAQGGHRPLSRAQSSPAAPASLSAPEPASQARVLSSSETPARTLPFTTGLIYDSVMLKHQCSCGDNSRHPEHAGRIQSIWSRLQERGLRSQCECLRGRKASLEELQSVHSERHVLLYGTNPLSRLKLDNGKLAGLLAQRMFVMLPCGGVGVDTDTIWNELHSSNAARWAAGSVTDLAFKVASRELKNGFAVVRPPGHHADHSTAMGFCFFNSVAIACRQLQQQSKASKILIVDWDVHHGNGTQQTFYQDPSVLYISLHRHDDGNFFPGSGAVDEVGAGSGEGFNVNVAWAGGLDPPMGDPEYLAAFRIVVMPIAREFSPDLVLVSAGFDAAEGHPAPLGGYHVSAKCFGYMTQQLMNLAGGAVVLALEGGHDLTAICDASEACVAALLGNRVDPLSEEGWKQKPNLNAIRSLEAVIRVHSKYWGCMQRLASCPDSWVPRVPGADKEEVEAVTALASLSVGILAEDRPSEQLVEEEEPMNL

HDAC11 = target: T2, HDAC11 (Homo sapiens, UniProt Q96DB2); test: as above;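 further: HDAC11 enzyme acting on an acetyl-lysine fluorogenic substrate, then a developer frees the fluorophore, read at excitation 360 nm and emission 460 nm, IC50 over a compound dilution series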
T2 sequence (Q96DB2 1-347): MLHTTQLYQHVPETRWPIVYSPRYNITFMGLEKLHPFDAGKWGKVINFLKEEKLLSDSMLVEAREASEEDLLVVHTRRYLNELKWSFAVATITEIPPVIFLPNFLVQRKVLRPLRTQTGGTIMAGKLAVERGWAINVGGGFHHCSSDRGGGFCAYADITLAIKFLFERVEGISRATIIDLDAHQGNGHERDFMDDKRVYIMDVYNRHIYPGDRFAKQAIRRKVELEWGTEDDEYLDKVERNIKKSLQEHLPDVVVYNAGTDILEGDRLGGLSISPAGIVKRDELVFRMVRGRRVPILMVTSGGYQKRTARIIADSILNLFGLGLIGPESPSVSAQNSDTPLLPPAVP

HDAC2 = HDAC2 (Homo sapiens, UniProt Q92769); test: as above; conditions: 37° C. 30 minutes;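 further: HDAC2 enzyme with an acetyl-lysine fluorescent substrate, then developer added, fluorescence read at excitation 360 nm and emission 460 nm, inhibition measured across several compound concentrations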
HDAC2, sequence (Q92769 whole entry, species assumed): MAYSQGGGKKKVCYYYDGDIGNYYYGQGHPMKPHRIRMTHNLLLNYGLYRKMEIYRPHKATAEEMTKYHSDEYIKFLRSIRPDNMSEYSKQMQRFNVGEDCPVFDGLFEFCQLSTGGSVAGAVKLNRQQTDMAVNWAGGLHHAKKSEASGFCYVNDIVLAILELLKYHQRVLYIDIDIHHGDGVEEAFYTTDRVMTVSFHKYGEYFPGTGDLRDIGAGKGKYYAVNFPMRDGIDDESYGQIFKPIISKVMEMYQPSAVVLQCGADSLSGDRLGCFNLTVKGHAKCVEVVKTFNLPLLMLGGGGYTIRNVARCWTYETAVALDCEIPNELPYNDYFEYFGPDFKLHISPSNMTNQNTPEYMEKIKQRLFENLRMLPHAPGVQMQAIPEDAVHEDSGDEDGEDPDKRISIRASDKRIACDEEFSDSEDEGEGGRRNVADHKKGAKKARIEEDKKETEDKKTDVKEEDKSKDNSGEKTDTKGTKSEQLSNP

[1] = system: SGC-7901 (human gastric cancer cells); test: MTT cancer cell growth inhibition; format: cell-based; conditions: Homo sapiens, SGC-7901, 72 h, MTT, 72 hours incubation, SGC-7901 cells; read-out: GI50 SGC-7901
Outline: (§1)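 72 h exposure, final drug 10^−5–10^−10 M, triplicate wells; 1500 cells/well plated the day before; medium DMEM or 1640 + 10% FBS; 37° C./5% CO2. MTT (5 mg/ml stock) 4 h, DMSO solubilisation, A570 → % viability → GI50.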

[2] = system: KBM5-T315I (human chronic myelogenous leukemia); test: MTT cancer cell growth inhibition; format: cell-based; conditions: Homo sapiens, 72 h, MTT, 72 hours incubation, KBM5-T315I cells; read-out: GI50 KBM5-T315I
Outline: as §1

[3] = system: Hela (human cervical cancer cells); test: MTT cancer cell growth inhibition; format: cell-based; conditions: Homo sapiens, HeLa, 72 h, MTT
Outline: as §1

[4] = system: MDA-MB-231 (breast cancer cells); test: MTT cancer cell growth inhibition; format: cell-based; conditions: Homo sapiens, MDA-MB-231, 72 h, read-out: GI50 MDA-MB-231, MTT, 72 hours incubation, MDA-MB-231 cells
Outline: as §1

[5] = system: HT1080 (human fibrosarcoma cells); test: MTT cancer cell growth inhibition; format: cell-based; conditions: Homo sapiens, HT-1080, 72 h, MTT
Outline: as §1

[6] = system: K562 (human leukemia cells); test: MTT cancer cell growth inhibition; format: cell-based; conditions: Homo sapiens, K562, 72 h, MTT, 72 hours incubation, K562 cells; read-out: GI50 K562
Outline: as §1

[7] = system: KBM-5 (human chronic myelogenous leukemia); test: MTT cancer cell growth inhibition; format: cell-based; conditions: Homo sapiens, KBM5, 72 h, MTT, 72 hours incubation, KBM-5 cells; read-out: GI50 KBM-5
Outline: as §1

[8] = system: H1975 (non-small cell lung adenocarcinoma); test: MTT cancer cell growth inhibition; format: cell-based; conditions: Homo sapiens, NCI-H1975, 72 h, MTT, 72 hours incubation, H1975 cells; read-out: GI50 H1975
Outline: as §1

[9] = system: N-87 (human gastric cancer cells); test: MTT cancer cell growth inhibition; format: cell-based; conditions: Homo sapiens, 72 h, MTT, 72 hours incubation, N-87 cells; read-out: GI50 N-87
Outline: as §1

[10] = system: HCC827 (human non-small cell lung cancer cells); test: MTT cancer cell growth inhibition; format: cell-based; conditions: Homo sapiens, HCC827, 72 h, MTT, 72 hours incubation, HCC827 cells; read-out: GI50 HCC827
Outline: as §1

[11] = read-out: IC50 HDAC11, HDAC11, 37° C. 30 minutes
[12] = 72 hours incubation, read-out: GI50 Hela
[13] = 72 hours incubation, read-out: GI50 HT1

Row | SMILES | IC50 HDAC7 (HDAC7) | IC50 (HDAC11; [11]) [µM] | IC50 (HDAC2) [µM] | GI50 [1] [µM] | GI50 [2] [µM] | GI50 [3, 12] [µM] | GI50 [4] [µM] | GI50 [5, 13] [µM] | GI50 [6] [µM] | GI50 [7] [µM] | GI50 [8] [µM] | GI50 [9] [µM] | GI50 [10] [µM] | IC50 (HDAC11) [µM] | GI50 ([3]; 72 hours, present invention, read-out: GI50 Hela, a) [µM] | GI50 ([5]; 72 hours, present invention, read-out: GI50 HT1080, a) [µM] | GI50 ([3]; Hela cells, 72 hours incubation, read-out: GI50 Hela) [µM] | GI50 ([5]; HT1080 cells, 72 hours incubation, read-out: GI50 HT1) [µM]
1 | C/C=C1\NC(=O)c2cc(F)cc(n2)CNC(=O)C[C@@H](/C=C/CCSC(C)=O)OC(=O)[C@H](CCCCNC(=O)OCC2c3ccccc3-c3ccccc32)NC1=O [Compound 76] | no activity | 0.094 | 0.036 | 0.051 | 0.034 | 0.09 | 0.026 | 0.07 | 0.017 | 0.094 | 0.034 | 0.032 | 0.072 |  |  |  |  | 
2 | C/C=C1\NC(=O)c2ccc(F)c(n2)CNC(=O)C[C@@H](/C=C/CCSC(=O)CCCCCCC)OC(=O)[C@H](C)NC1=O [Example 62] | no activity |  | 0.027 | 0.046 | 0.064 | 0.09 | 0.031 | 0.08 | 0.016 | 0.091 | 0.026 | 0.064 | 0.083 | 0.079 |  |  |  | 
3 | C/C=C1\NC(=O)c2cccc(n2)CNC(=O)C[C@@H](/C=C/CCSC(=O)CCCC)OC(=O)[C@H](C(C)C)NC1=O [Compound 4] | no activity | 0.201 | 0.251 | 0.034 | 0.022 | 0.05 | 0.086 | 0.07 | 0.061 | 0.074 | 0.031 | 0.053 | 0.022 |  |  |  |  | 
4 | C/C=C1\NC(=O)c2cccc(n2)CNC(=O)C[C@@H](/C=C/CCSC(=O)CCCCCCC)OC(=O)[C@H](C)NC1=O [Compound 11] | no activity | 0.081 | 0.055 | 0.035 | 0.026 | 0.12 | 0.086 | 0.14 | 0.063 | 0.062 | 0.042 | 0.037 | 0.023 |  | 0.12 | 0.14 |  | 
5 | C/C=C1\NC(=O)c2nc(ccc2F)CCNC(=O)C[C@@H](/C=C/CCSC(C)=O)OC(=O)[C@H](C(C)C)NC1=O [Compound 103] | no activity |  | 0.029 | 0.037 | 0.051 | 0.04 | 0.039 | 0.08 | 0.034 | 0.031 | 0.026 | 0.051 | 0.055 | 0.093 |  |  |  | 
6 | C/C=C1\NC(=O)c2nc(ccc2SC)CNC(=O)C[C@@H](/C=C/CCSC=O)OC(=O)[C@H](C(C)C)NC1=O [Compound 168] | no activity |  | 0.041 | 0.034 | 0.036 |  | 0.012 |  | 0.034 | 0.022 | 0.066 | 0.094 | 0.035 | 0.099 |  |  | 0.05 | 0.13
